The NIST ThermoML archive (doi:10.1021/je2007549)

Columns and labels:
[1] = 101 kPa, Liquid; for electrical conductivity: Direct current cell with electrodes; for viscosity: Falling or rolling sphere viscometry; for mass density: Vibrating tube method
[2] = xn = mol fraction of the nth substance listed; details: 101 kPa, Liquid; for electrical conductivity: Direct current cell with electrodes; for mass density: Vibrating tube method; for viscosity: n

CCCC[P+](CCCC)(CCCC)CCCN.C[C@H](N)C(=O)[O-] [(3-aminopropyl)tributylphosphonium L-alaninate]
[1]
Details | electrical conductivity [S/m] | mass density [kg/m3] | viscosity [mPa·s]
298.15 K | 0.0141 | 986.75 | 804.88
303.15 K | 0.0209 | 983.72 | 561.4
313.15 K | 0.032 | 977.65 | 291.07
323.15 K | 0.0464 | 971.62 | 164.61
333.15 K | 0.0649 | 965.71 | 106.7
343.15 K | 0.0884 | 959.97 | 65.96

CC(C)C[C@H](N)C(=O)[O-].CCCC[P+](CCCC)(CCCC)CCCN [(3-aminopropyl)tributylphosphonium L-leucinate]
[1]
Details | electrical conductivity [S/m] | mass density [kg/m3] | viscosity [mPa·s]
298.15 K | 0.008 | 971.86 | 1227.9
303.15 K | 0.0108 | 968.8 | 855.26
313.15 K | 0.0185 | 962.68 | 417.9
323.15 K | 0.0291 | 956.54 | 224.29
333.15 K | 0.0414 | 950.54 | 130.46
343.15 K | 0.0605 | 944.58 | 81.01

CC(C)[C@H](N)C(=O)[O-].CCCC[P+](CCCC)(CCCC)CCCN [(3-aminopropyl)tributylphosphonium L-valinate]
[1]
Details | electrical conductivity [S/m] | mass density [kg/m3] | viscosity [mPa·s]
298.15 K | 0.00815 | 980.72 | 1015.5
303.15 K | 0.011 | 977.68 | 695.04
313.15 K | 0.0188 | 971.57 | 350.86
323.15 K | 0.0294 | 965.45 | 192.24
333.15 K | 0.0447 | 959.5 | 114.05
343.15 K | 0.065 | 953.54 | 72.45

CC(C)[C@H](N)C(=O)[O-].CCCC[P+](CCCC)(CCCC)CCCN [(3-aminopropyl)tributylphosphonium L-valinate] + O
[2]
Details | electrical conductivity [S/m] | mass density [kg/m3] | viscosity [mPa·s]
298.15 K, x2 = 0 | 0.00815 | 980.72 | 1015.5
298.15 K, x2 = 0.25 | 0.0116 | 982.82 | 734.22
298.15 K, x2 = 0.5 | 0.0168 | 987.18 | 505.63
298.15 K, x2 = 0.75 | 0.0414 | 995.89 | 237.96
303.15 K, x2 = 0 | 0.011 | 977.68 | 695.04
303.15 K, x2 = 0.25 | 0.0158 | 979.76 | 508.12
303.15 K, x2 = 0.5 | 0.0237 | 984.04 | 335.23
303.15 K, x2 = 0.75 | 0.0547 | 992.65 | 168.93
313.15 K, x2 = 0 | 0.0188 | 971.57 | 350.86
313.15 K, x2 = 0.25 | 0.0253 | 973.59 | 259.52
313.15 K, x2 = 0.5 | 0.0401 | 977.71 | 184.22
313.15 K, x2 = 0.75 | 0.0853 | 986.16 | 92.15
323.15 K, x2 = 0 | 0.0294 | 965.45 | 192.24
323.15 K, x2 = 0.25 | 0.0392 | 967.39 | 145.61
323.15 K, x2 = 0.5 | 0.0635 | 971.55 | 102.76
323.15 K, x2 = 0.75 | 0.128 | 979.59 | 56.03
333.15 K, x2 = 0 | 0.0447 | 959.5 | 114.05
333.15 K, x2 = 0.25 | 0.0563 | 961.39 | 87.86
333.15 K, x2 = 0.5 | 0.093 | 965.34 | 65.77
333.15 K, x2 = 0.75 | 0.183 | 972.96 | 36.96
343.15 K, x2 = 0 | 0.065 | 953.54 | 72.45
343.15 K, x2 = 0.25 | 0.0858 | 955.37 | 56.87
343.15 K, x2 = 0.5 | 0.132 | 959.05 | 43.81
343.15 K, x2 = 0.75 | 0.258 | 966.29 | 24.58
